What all share (test): inhibition of tumour cell growth, NCI panel, 48 h
Test [1] concerns UACC-257 melanoma.
The subject of test [2] is A549 NSCLC.
Test [3] relates to HL-60(TB) leukemia.
Test [4] concerns HT29 colon.
The subject of test [5] is NCI/ADR-RES ovarian.
Test [6] relates to KM12 colon.
The subject of test [7] is BT-549 breast.

Each structure is given as a SMILES string.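 Where inhibition never reached the appropriate level, the endpoint shown equals the highest concentration tested. Otherwise, values were interpolated linearly from a five-concentration, 48-hour dose response in 96-well plates. GI50 is the concentration that inhibits growth by half. TGI: concentration producing complete growth inhibition.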 A value given as a limit tells only on which side of the number the result lay.

On to `CN(CCCNC(=O)Cc1ccc2ccc3cccc4ccc1c2c34)CCCNc1cc(-c2ccc3ccccc3c2)nc2ccccc12`, for which the GI50 was 1.8 µM in test [1]; 1.83 µM in test [2]; 1.1 µM in test [3]; 0.511 µM in test [4]; 1.49 µM in test [5]; 1.36 µM in test [6]. The TGI is 3.56 µM in test [1]; 3.75 µM in test [2]; 2.43 µM in test [3]; 1.69 µM in test [4]; 2.96 µM in test [5]; 2.69 µM in test [6].
`N=C(N)SCc1cccc(-c2nc3ccccc3c(=O)o2)c1`: the TGI in test [1], in test [2], in test [4], in test [5], in test [7] and in test [6] was more than 100 µM throughout.
With `CC(=O)/C=C/c1ccc(C#Cc2ccccc2)s1`, the GI50 was 19.1 µM in test [1]; 15.1 µM in test [2]; 12 µM in test [4]; 15.8 µM in test [5]; 13.5 µM in test [7]; 6.1 µM in test [6]. In addition, the TGI came to 34.3 µM in test [1]; 28.5 µM in test [2]; 25.2 µM in test [4]; 33.9 µM in test [5]; 28 µM in test [7]; 36.7 µM in test [6].
Consider `Oc1cn(-c2ccc(Cl)cc2)nc1-c1n[nH]c(=S)n1C1CCCCC1`, for which the GI50 in test [1] is 0.873 µM; in test [2] it was 2.03 µM; in test [4], 30.5 µM; in test [7], 9.51 µM; in test [6] it was 1.04 µM. In addition, the TGI in test [1] is more than 100 µM; in test [2], more than 48.8 µM; in test [4] it was more than 100 µM; in test [5], 1.05 µM; in test [7], more than 100 µM; in test [6], 17.5 µM.
On to `Cc1cc(C2CC(O)C(CO)O2)cc2c(=O)[nH]c(N)nc12` (centres undefined), for which the GI50 in test [1], in test [2], in test [4], in test [5] and in test [7] was more than 100 µM each time. Moreover, the TGI in test [1], in test [2], in test [4], in test [5] and in test [7] was more than 100 µM in each case.
`COc1ccc2c(O)cc3c(c2c1)[C@H](CCl)CN3C(=O)c1cc2cc(NC(=O)CCN3CCOCC3)ccc2[se]1`: the GI50 was less than 0.001 µM in test [1]; 0.00142 µM in test [3]; less than 0.001 µM in test [4]; less than 0.001 µM in test [5]; 0.00104 µM in test [7]; less than 0.001 µM in test [6]. The TGI is 0.00319 µM in test [1], more than 10 µM in test [3], more than 3.24 µM in test [4] and 0.00649 µM in test [7].
In the case of `O=C(O)CC[N+]1=CCC(c2ccccc2)(c2ccccc2)O1`, the TGI in test [1], in test [2], in test [4] and in test [7] was more than 100 µM each time.
On to `COc1cc(C2=C(c3cn(C)c4ccccc34)COC2=O)cc(OC)c1OC`, for which the GI50 in test [2] is 0.1 µM; in test [3] it was 0.0425 µM; in test [4], 0.0383 µM; in test [5], 0.0464 µM; in test [7], 0.0615 µM. The TGI was more than 25.6 µM in test [2], 1.46 µM in test [3], 2.07 µM in test [5] and 4.18 µM in test [7].
As to `COc1cccc(/C(COc2ccc3c(c2)oc(=O)c2cc(OC)ccc23)=N/O)c1`, the GI50 in test [1] was 34.8 µM; in test [2], 7.57 µM; in test [4], 3.38 µM; in test [5], 3.63 µM; in test [7] it was 11.7 µM; in test [6] it was 3.86 µM. The TGI in test [1], in test [2], in test [4], in test [5], in test [7] and in test [6] was more than 100 µM throughout.
On to `CCC(C)(C)c1ccc(OCCCCCCN2CCNCC2)cc1`, for which the GI50 in test [1] was 2.11 µM; in test [2] it was 3.77 µM; in test [3], 1.76 µM; in test [4], 1.86 µM; in test [5], 3.11 µM; in test [6], 1.88 µM. Also, the TGI in test [1] worked out at 4.43 µM; in test [2], 13.7 µM; in test [3], 3.65 µM; in test [4], 4.72 µM; in test [5] it was 8.95 µM; in test [6], 3.5 µM.
Take `Cc1ccc(S(=O)(=O)NCCNc2nccc(-c3c(-c4ccc(F)cc4)nc4sccn34)n2)cc1`: the GI50 was 3.44 µM in test [2], 4.83 µM in test [5] and 5.83 µM in test [7]. In addition, the results for the TGI in test [2], in test [5] and in test [7] were more than 100 µM, more than 100 µM and 36 µM, respectively.
Consider `COc1ccc(-c2oc3cc(O)c(OC)c(O)c3c(=O)c2OC)cc1O`, for which the GI50 in test [1] is more than 100 µM; in test [2], 1.07 µM; in test [3], 0.0275 µM; in test [4], 3.5 µM; in test [5], 0.0456 µM; in test [6], 0.437 µM. For the same compound, the TGI in test [1] is more than 100 µM; in test [2], more than 100 µM; in test [3], 0.212 µM; in test [4] it was more than 100 µM; in test [5], more than 100 µM; in test [6], 20.9 µM.
For the compound `CCOC(=O)c1c[nH]c2oc(/C=N/N3CC(CN4CCOCC4)OC3=O)cc2c1=O` (centres undefined), the TGI in test [1], in test [2], in test [3], in test [4], in test [5] and in test [6] was more than 100 µM throughout.
Take `O=C(CSC(c1ccccc1)c1ccccc1)N/N=C/c1ccc(Cl)cc1Cl`: the GI50 is 23.1 µM in test [1]; 20.5 µM in test [2]; 24.4 µM in test [3]; 35.3 µM in test [5]; 30 µM in test [7]; 16.6 µM in test [6]. Moreover, the TGI is 68.3 µM in test [1]; 51.1 µM in test [2]; 55.1 µM in test [3]; more than 100 µM in test [5]; 75.8 µM in test [7]; 38.9 µM in test [6].

The values above are taken from PubChem BioAssay (NCI).
